# Measurements as given in PubChem BioAssay AID1963846 (Molecular Pharmacology Branch, DTP, NCI, 2024).
# Test system: 454973-116-R2-J3-PDC complex spheroid viability
# Experiment: Anticancer human tumor 454973-116-R2-J3-PDC patient-derived pancreatic carcinoma cell line growth inhibition [POLQ]
# Conditions: for IC50: curve of first compound; for viability, T/C: stronger effect = lower value
# Protocol: Multicellular complex tumor spheroid response to Polymerase (POL) inhibitors (novobiocin, ART-558, RP6685) in combination with a variety of drugs and investigational agents in selected tumor cell lines
# The POL inhibitors (novobiocin, ART-558, and RP6685) were evaluated both individually and in combination with standard of care and investigational anticancer small molecules within a complex spheroid model of solid tumors. . Complex spheroids include a stromal component modeled by human endothelial cells (HUVEC) and fibroblasts modeled by human mesenchymal stem cells (MSCs). The concentration ranges selected for each drug and investigational agent were based upon clinically achievable concentrations if the clinical Cmax of the agent was known.
# Compounds. The drugs and investigational agents: novobiocin (NSC847541), ART-558 (NSC835418), RP-6685 (NSC848927), peposertib (NSC802822), ceralasertib (NSC780249), elimusertib (NSC800525), camonsertib (NSC841442), AZD-1390 (NSC803789), olaparib (NSC753686), talazoparib (NSC767125), rucaparib (NSC756644), sotorasib (NSC818433), MRTX-1133 (NSC836407), SN-38 (NSC673596), topotecan (NSC609699), epotoside (NSC141540), doxorubicin (NSC123127), gemcitabine (NSC613327), 5-fluorouracil (NSC19893), paclitaxel (NSC125973), vemurafenib (NSC761431), MSA-2 (NSC828583), SN-011 (NSC837082), adavosertib (NSC754352), prexasertib (NSC758257), carboplatin (NSC241240) and oxaliplatin (NSC266046), were obtained from the National Cancer Institute (NCI) Developmental Therapeutics Program Chemical Repository (21). The FDA-approved anticancer drug set is available from the Developmental Therapeutics Program at https://dtp.cancer.gov/organization/dscb/obtaining/. […] The stock solutions were prepared in dimethyl sulfoxide (DMSO, Sigma-Aldrich, St. Louis, MO, cat. D2650), except for the platinum compounds which were prepared in saline (Quality Biological, Gaithersburg, MD, cat. 114-055-101), at 800-fold the tested concentration and stored at -70 degrees C prior to their use. All drugs and investigational agents were tested over a range starting from a high concentration at or near the clinical Cmax and decreasing in half-log increments. If the clinical Cmax for an agent had not been determined, the highest concentration tested was 10 microM, except for SN-38, which was tested at a high concentration of 1 microM.
# Cell Culture. All cells were maintained in an incubator at 37 degrees C and 5% CO2 with 95% humidity. The PDC lines were cultured according to standard operating procedures established by the NCI PDMR (https://pdmr.cancer.gov). Table 3 of the manuscript, lists the cell lines along with the number of the three cell types plated to form the mct-spheroids and media for tumor cell growth. After thawing, all PDC lines, except 997537-175-T-J1-PDC and 415267-285-R-J2-PDC, were cultured in Matrigel-coated flasks prepared with a working solution of 1X Ham's F-12 nutrient mix, without supplementation (Thermo Fisher Scientific, cat. 11765054), 100 U/mL penicillin-streptomycin (Thermo Fisher Scientific, cat. 15140122), and 2.5% Matrigel (Corning Inc., Corning, NY, cat. 354248) for the first three passages. The two PDC lines 997537-175-T-J1-PDC and 415267-285-R-J2-PDC were cultured on uncoated flasks. The 857933-349-R-J2-PDC line was cultured in 6C/Colon 1B media containing advanced DMEM/F-12 (Thermo Fisher Scientific, cat. 12634028), 10 mM HEPES (Thermo Fisher Scientific, cat. 15630080), 1X GlutaMAX supplement (Thermo Fisher Scientific, cat. 35050061), 0.1 mg/mL primocin (InvivoGen, San Diego, CA, cat. ant-pm-2), 10% defined fetal bovine serum, heat inactivated (HyClone Laboratories Inc., Logan, UT, cat. SH30070.03HI), 50% L-WRN conditioned media (ATCC, cat. CRL-3276), 1.25 mM N-Acetyl-L-cysteine (Sigma-Aldrich, cat. A9165), 10 mM nicotinamide (Sigma-Aldrich, cat. N0636), 1X B-27 supplement (Thermo Fisher Scientific, cat. 17504044), 1X N-2 supplement (Thermo Fisher Scientific, cat. […]
# 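Note: spheroids exposed to drugs for seven days before measurement.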
# 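Throughout, for viability, T/C: percent viability relative to DMSO vehicle control wells taken as 100%.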
smiles,measurement,setting,value
CC(=O)O[C@H]1C(=O)[C@@]2(C)[C@H]([C@H](OC(=O)c3ccccc3)[C@]3(O)C[C@H](OC(=O)[C@H](O)[C@@H](NC(=O)c4ccccc4)c4ccccc4)C(C)=C1C3(C)C)[C@]1(OC(C)=O)CO[C@@H]1C[C@@H]2O + COC1C(OC(N)=O)C(O)C(Oc2ccc3c(O)c(NC(=O)c4ccc(O)c(CC=C(C)C)c4)c(=O)oc3c2C)OC1(C)C,IC50,second compound 0.0316 µM,< 9.49 nM
same,IC50,second compound 0.1 µM,< 9.49 nM
same,IC50,second compound 0.316 µM,< 9.49 nM
same,IC50,second compound 1 µM,< 9.49 nM
same,IC50,second compound 3.16 µM,< 9.49 nM
same,IC50,second compound 10 µM,< 9.49 nM
same,"viability, T/C","second compound 0.0316 µM, first compound 0.00949 µM",11.9%
same,"viability, T/C","second compound 0.0316 µM, first compound 0.03 µM",7.88%
same,"viability, T/C","second compound 0.0316 µM, first compound 0.0949 µM",6.54%
same,"viability, T/C","second compound 0.0316 µM, first compound 0.3 µM",5.33%
same,"viability, T/C","second compound 0.0316 µM, first compound 0.949 µM",6.41%
same,"viability, T/C","second compound 0.0316 µM, first compound 3 µM",7.66%
same,"viability, T/C","second compound 0.1 µM, first compound 0.00949 µM",12.8%
same,"viability, T/C","second compound 0.1 µM, first compound 0.03 µM",5.37%
same,"viability, T/C","second compound 0.1 µM, first compound 0.0949 µM",5.19%
same,"viability, T/C","second compound 0.1 µM, first compound 0.3 µM",5.57%
same,"viability, T/C","second compound 0.1 µM, first compound 0.949 µM",5.27%
same,"viability, T/C","second compound 0.1 µM, first compound 3 µM",3.86%
same,"viability, T/C","second compound 0.316 µM, first compound 0.00949 µM",10.7%
same,"viability, T/C","second compound 0.316 µM, first compound 0.03 µM",5.28%
same,"viability, T/C","second compound 0.316 µM, first compound 0.0949 µM",6.4%
same,"viability, T/C","second compound 0.316 µM, first compound 0.3 µM",4.53%
same,"viability, T/C","second compound 0.316 µM, first compound 0.949 µM",6.27%
same,"viability, T/C","second compound 0.316 µM, first compound 3 µM",5.12%
same,"viability, T/C","second compound 1 µM, first compound 0.00949 µM",13.2%
same,"viability, T/C","second compound 1 µM, first compound 0.03 µM",5.82%
same,"viability, T/C","second compound 1 µM, first compound 0.0949 µM",6.61%
same,"viability, T/C","second compound 1 µM, first compound 0.3 µM",5.98%
same,"viability, T/C","second compound 1 µM, first compound 0.949 µM",5.03%
same,"viability, T/C","second compound 1 µM, first compound 3 µM",5.86%
same,"viability, T/C","second compound 3.16 µM, first compound 0.00949 µM",11.1%
same,"viability, T/C","second compound 3.16 µM, first compound 0.03 µM",7.33%
same,"viability, T/C","second compound 3.16 µM, first compound 0.0949 µM",4.63%
same,"viability, T/C","second compound 3.16 µM, first compound 0.3 µM",3.97%
same,"viability, T/C","second compound 3.16 µM, first compound 0.949 µM",3.87%
same,"viability, T/C","second compound 3.16 µM, first compound 3 µM",4.77%
same,"viability, T/C","second compound 10 µM, first compound 0.00949 µM",12.8%
same,"viability, T/C","second compound 10 µM, first compound 0.03 µM",4.79%
same,"viability, T/C","second compound 10 µM, first compound 0.0949 µM",7.63%
same,"viability, T/C","second compound 10 µM, first compound 0.3 µM",5.47%
same,"viability, T/C","second compound 10 µM, first compound 0.949 µM",3.92%
same,"viability, T/C","second compound 10 µM, first compound 3 µM",5.39%
CC1COCCN1c1cc(C2(O)CC3CCC(C2)O3)c2cnn(-c3ccn[nH]3)c2n1 (centres undefined) + Cc1cccc(N(C)C(=O)C2C(O)CCN2c2nc(C)cc(C(F)(F)F)c2C#N)c1,IC50,second compound 0.0316 µM,190 nM
same,IC50,second compound 0.1 µM,212 nM
same,IC50,second compound 0.316 µM,199 nM
same,IC50,second compound 1 µM,196 nM
same,IC50,second compound 3.16 µM,182 nM
same,IC50,second compound 10 µM,163 nM
same,"viability, T/C","second compound 0.0316 µM, first compound 0.0316 µM",91.2%
same,"viability, T/C","second compound 0.0316 µM, first compound 0.1 µM",70%
same,"viability, T/C","second compound 0.0316 µM, first compound 0.316 µM",33.4%
same,"viability, T/C","second compound 0.0316 µM, first compound 1 µM",22.8%
same,"viability, T/C","second compound 0.0316 µM, first compound 3.16 µM",20.6%
same,"viability, T/C","second compound 0.0316 µM, first compound 10 µM",13.2%
same,"viability, T/C","second compound 0.1 µM, first compound 0.0316 µM",90.6%
same,"viability, T/C","second compound 0.1 µM, first compound 0.1 µM",80.9%
same,"viability, T/C","second compound 0.1 µM, first compound 0.316 µM",33.5%
same,"viability, T/C","second compound 0.1 µM, first compound 1 µM",20.6%
same,"viability, T/C","second compound 0.1 µM, first compound 3.16 µM",21.5%
same,"viability, T/C","second compound 0.1 µM, first compound 10 µM",15.5%
same,"viability, T/C","second compound 0.316 µM, first compound 0.0316 µM",93.9%
same,"viability, T/C","second compound 0.316 µM, first compound 0.1 µM",73.1%
same,"viability, T/C","second compound 0.316 µM, first compound 0.316 µM",34.3%
same,"viability, T/C","second compound 0.316 µM, first compound 1 µM",21.2%
same,"viability, T/C","second compound 0.316 µM, first compound 3.16 µM",22.8%
same,"viability, T/C","second compound 0.316 µM, first compound 10 µM",15.8%
same,"viability, T/C","second compound 1 µM, first compound 0.0316 µM",102%
same,"viability, T/C","second compound 1 µM, first compound 0.1 µM",73%
same,"viability, T/C","second compound 1 µM, first compound 0.316 µM",33%
same,"viability, T/C","second compound 1 µM, first compound 1 µM",21.9%
same,"viability, T/C","second compound 1 µM, first compound 3.16 µM",20.1%
same,"viability, T/C","second compound 1 µM, first compound 10 µM",14.5%
same,"viability, T/C","second compound 3.16 µM, first compound 0.0316 µM",98.5%
same,"viability, T/C","second compound 3.16 µM, first compound 0.1 µM",67.6%
same,"viability, T/C","second compound 3.16 µM, first compound 0.316 µM",34.7%
same,"viability, T/C","second compound 3.16 µM, first compound 1 µM",16.8%
same,"viability, T/C","second compound 3.16 µM, first compound 3.16 µM",26%
same,"viability, T/C","second compound 3.16 µM, first compound 10 µM",16.2%
same,"viability, T/C","second compound 10 µM, first compound 0.0316 µM",105%
same,"viability, T/C","second compound 10 µM, first compound 0.1 µM",60.5%
same,"viability, T/C","second compound 10 µM, first compound 0.316 µM",36.7%
same,"viability, T/C","second compound 10 µM, first compound 1 µM",21.4%
same,"viability, T/C","second compound 10 µM, first compound 3.16 µM",28.3%
same,"viability, T/C","second compound 10 µM, first compound 10 µM",17.2%
